According to publication PMC9687805 (Biomolecules, 2022):

Key:
porcine liver CES [1] = test system: porcine liver CES; set-up: method as in PMID 33831780; details: cited from earlier work
[2] = set-up: method as in PMID 33831780; details: cited from earlier work
Human erythrocyte AChE [3] = biological target: T1, Human erythrocyte AChE (Homo sapiens, UniProt P22303); test: biochemical; details: human erythrocyte AChE; 5 min incubation, 25 °C, pH 7.5; mean ± SEM, n = 3; read-out: Inhibitory activity against AChE, IC50
T1 construct: purchased Sigma-Aldrich; host or cells: human erythrocytes
T1 sequence (P22303 32-617 isoform P22303-2 limits assumed): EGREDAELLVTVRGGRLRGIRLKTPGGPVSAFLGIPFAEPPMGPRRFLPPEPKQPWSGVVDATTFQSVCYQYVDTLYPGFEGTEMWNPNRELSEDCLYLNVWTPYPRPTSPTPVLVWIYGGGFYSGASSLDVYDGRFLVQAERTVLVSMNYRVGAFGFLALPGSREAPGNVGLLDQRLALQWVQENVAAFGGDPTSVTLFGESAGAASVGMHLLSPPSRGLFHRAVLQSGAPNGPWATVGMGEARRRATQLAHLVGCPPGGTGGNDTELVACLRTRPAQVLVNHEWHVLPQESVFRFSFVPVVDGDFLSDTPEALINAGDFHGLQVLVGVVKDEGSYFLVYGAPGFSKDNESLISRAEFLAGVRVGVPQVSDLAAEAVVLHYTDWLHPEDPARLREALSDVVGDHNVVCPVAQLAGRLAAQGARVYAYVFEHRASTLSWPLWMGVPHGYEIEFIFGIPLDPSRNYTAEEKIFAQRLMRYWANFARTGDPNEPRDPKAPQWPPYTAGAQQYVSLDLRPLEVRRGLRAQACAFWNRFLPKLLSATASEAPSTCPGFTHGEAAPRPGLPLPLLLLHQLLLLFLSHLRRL
Protocol: (§1) The assay solution consisted of 0.1 M K/Na phosphate buffer pH 7.5, 25 °C, 0.33 mM DTNB, 0.02 unit/mL AChE or BChE, and 1 mM substrate (ATCh or BTCh, respectively). Reagent blanks consisted of reaction mixtures without substrates.
(§2) Each experiment was performed in triplicate.

equine serum BChE [4] = biological target: T2, equine serum BChE (Equus caballus, UniProt P81908); test: biochemical; details: equine serum BChE; 5 min incubation, 25 °C, pH 7.5; mean ± SEM, n = 3; read-out: Inhibitory activity against BChE, IC50
T2 construct: purchased Sigma-Aldrich; host or cells: equine serum
T2 sequence (P81908 whole entry): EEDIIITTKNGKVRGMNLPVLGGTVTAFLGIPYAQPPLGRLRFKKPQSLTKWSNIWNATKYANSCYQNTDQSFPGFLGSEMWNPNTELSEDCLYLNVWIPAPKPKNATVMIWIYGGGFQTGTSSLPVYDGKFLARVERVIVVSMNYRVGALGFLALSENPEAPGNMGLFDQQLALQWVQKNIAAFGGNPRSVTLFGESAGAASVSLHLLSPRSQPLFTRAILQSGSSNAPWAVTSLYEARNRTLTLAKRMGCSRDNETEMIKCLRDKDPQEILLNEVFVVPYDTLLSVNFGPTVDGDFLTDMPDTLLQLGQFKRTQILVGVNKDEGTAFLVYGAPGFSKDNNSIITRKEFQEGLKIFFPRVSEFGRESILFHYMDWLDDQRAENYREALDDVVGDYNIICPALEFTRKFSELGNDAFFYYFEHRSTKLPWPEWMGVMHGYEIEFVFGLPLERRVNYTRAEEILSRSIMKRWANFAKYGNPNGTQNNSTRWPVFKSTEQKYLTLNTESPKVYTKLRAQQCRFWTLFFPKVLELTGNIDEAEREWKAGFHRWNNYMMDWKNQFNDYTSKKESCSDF
Protocol: as §1, §2

Human erythrocyte AChE [5] = biological target: T1, Human erythrocyte AChE; test: Kinetic study of AChE inhibition (Lineweaver-Burk); assay type: biochemical
Protocol: (§3) Mechanisms of human erythrocyte AChE and equine serum BChE inhibition were assessed via a thorough analysis of enzyme kinetics. Residual activity was measured following 5 min incubation at 25 °C with three increasing concentrations of inhibitor and six decreasing substrate concentrations.

equine serum BChE [6] = biological target: T2, equine serum BChE; test: Kinetic study of BChE inhibition (Lineweaver-Burk); assay type: biochemical
Protocol: as §3

EeAChE PAS = biological target: T3, EeAChE PAS (Electrophorus electricus, UniProt O42275); test: biochemical; assay type: binding; details: 0.25 h; compound 20 μM, EeAChE 7 μM, propidium iodide 8 μM; n.a. = not active; read-out: % Displacement of Propidium from the EeAChE PAS at 20 μM
T3 construct: purchased Sigma-Aldrich type VI-S; host or cells: electric eel
T3 sequence (O42275 24-633): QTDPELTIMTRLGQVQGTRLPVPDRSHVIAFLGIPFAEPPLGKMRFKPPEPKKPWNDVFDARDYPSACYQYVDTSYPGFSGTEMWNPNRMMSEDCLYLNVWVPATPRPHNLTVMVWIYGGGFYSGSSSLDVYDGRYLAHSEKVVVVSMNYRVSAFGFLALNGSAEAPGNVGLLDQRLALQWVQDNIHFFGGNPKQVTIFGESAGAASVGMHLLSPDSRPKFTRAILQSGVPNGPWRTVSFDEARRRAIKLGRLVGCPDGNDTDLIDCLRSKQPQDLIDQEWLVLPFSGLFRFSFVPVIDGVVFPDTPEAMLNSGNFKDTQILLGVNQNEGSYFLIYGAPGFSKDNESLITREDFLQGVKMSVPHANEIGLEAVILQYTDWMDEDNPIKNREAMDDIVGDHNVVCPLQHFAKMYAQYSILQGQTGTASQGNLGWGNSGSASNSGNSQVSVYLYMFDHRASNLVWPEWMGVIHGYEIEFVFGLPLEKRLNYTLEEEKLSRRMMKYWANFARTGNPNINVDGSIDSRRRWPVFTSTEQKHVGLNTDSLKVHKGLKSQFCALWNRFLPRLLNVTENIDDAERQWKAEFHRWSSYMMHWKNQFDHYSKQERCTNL
Protocol: Electrophorus electricus (EeAChE) (electric eel, type VI-S, lyophilized powder, Sigma-Aldrich, St. Louis, MO, USA) was used owing to its high degree of purification, high activity, and lower cost than human AChE (hAChE). […] To determine the degree of displacement (% displacement) of propidium from the PAS of AChE, EeAChE (final concentration, 7 μM) was incubated with the test compound at a concentration of 20 μM in 1 mM Tris-HCl buffer pH 8.0, 25 °C, for 15 min. Then, propidium iodide solution (final concentration, 8 μM) was added, the samples were incubated for 15 min, and the fluorescence spectrum (530 nm (excitation) and 600 nm (emission)) was taken. […] The blank contained propidium iodide of the same concentration in 1 mM Tris-HCl buffer, pH 8.0 at 25 °C. The measurements were carried out in triplicate on a FLUOStar Optima microplate reader (LabTech, Ortenberg, Germany), and the results were calculated by the following formula:% Displacement = 100 − (IFAChE + Propidium + inhibitor / IFAChE + Propidium) × 100 (1) where IFAChE + Propidium is the fluorescence intensity of the propidium associated with AChE in the absence of the test compound (taken as 100%), and IFAChE + Propidium + inhibitor is the fluorescence intensity of the propidium associated with AChE in the presence of the test compound.

[7] = ABTS radical cation scavenging activity assay; set-up: key to ABTS•+-scavenging activity, TEAC: ratio of slopes, tested compound vs Trolox (Trolox = 1); details: n=3, 1 h, 30 °C
Protocol: Radical scavenging activity of the compounds was evaluated by the ABTS radical cation (ABTS^•+) scavenging assay showing the ability of the compounds to decolorize the ABTS^•+ solution [86] with some modifications. Trolox was used as the antioxidant standard; ascorbic acid was used as the comparison compound. All tested compounds and standards were dissolved in DMSO.
The solution of ABTS^•+ was produced by mixing 7 mM ABTS aqueous solution with 2.45 mM potassium persulfate aqueous solution in equal quantities and allowing them to react for 12–16 h at room temperature in the dark. Radical scavenging capacity of the compounds was analyzed by mixing 10 µL of compound with 240 µL of ABTS^•+ working solution in ethanol (100 µM final concentration), and after 1 h of incubation at 30 °C the decrease in absorbance was measured spectrophotometrically at 734 nm using a Bio-Rad xMark microplate UV/VIS spectrophotometer (Bio-Rad, Hercules, CA, USA). The compounds were tested in the concentration range 5 × 10^−7–1 × 10^−4 M. Ethanol blanks were run in each assay. Values were obtained from five replicates of each sample and three independent experiments.
Antioxidant activity was reported as Trolox equivalent antioxidant capacity (TEAC values), consisting of the ratio between the slopes obtained from the linear correlation for concentrations of the tested compounds and Trolox with absorbance of ABTS radical. […] The calculations were carried out using Origin 6.1 for Windows (OriginLab, Northampton, MA, USA). Results are presented as mean ± SEM calculated using GraphPad Prism version 6.05 for Windows, GraphPad Software (San Diego, CA, USA).

[8] = Ferric reducing antioxidant power (FRAP) assay; details: Trolox equivalents; n=3, 1 h, 37 °C; mean ± SEM
Protocol: The FRAP (Ferric Reducing Antioxidant Power) assay measures the ability of antioxidants to reduce the ferric 2,4,6-tripyridyl-s-triazine complex [Fe(TPTZ)2]^3+ to the intensely blue-colored ferrous complex [Fe(TPTZ)2]^2+ with an absorption maximum at λ = 593 nm. The reducing ability of a compound is an indicator of its potential antioxidant activity.
The ferric reducing ability of the compounds was determined by a previously described method as a microplate-adapted version described in [42]. 2,4,6-tris(pyridin-2-yl)-1,3,5-triazine (TPTZ), FeCl3·6H2O, Trolox, ascorbic acid and DMSO were obtained from Sigma-Aldrich Chemical Co (St. Louis, MO, USA). The FRAP reagent was prepared by mixing acetate buffer (0.3 M, pH 3.6), TPTZ (10 mM in 40 mM HCl) and FeCl3·6H2O (20 mM in distilled water) in a ratio of 10:1:1 immediately before use. Compounds were dissolved in DMSO and tested in the concentration range of 1×10^−6–1×10^−4 M. The solvent content in the reaction mixture was 4% (v/v). The test compounds (10 µL) were added to the FRAP reagent solution (240 µL) and mixed thoroughly. The reaction was carried out at 37 °C in the dark, the incubation time was 1 h. The absorbance at 600 nm was monitored spectrophotometrically by a FLUOStar OPTIMA microplate reader (BMG Labtech, Germany) at 37 °C. Trolox was used as a standard antioxidant, ascorbic acid as a reference compound. Values were obtained from four replicates of each sample and three independent experiments.
The ferric reducing ability of compounds was expressed as TE units (antioxidant activity in Trolox equivalent) with the values calculated as the ratio of the concentrations of Trolox and the test compound resulting in the same effect.

porcine liver CES [9] = test: CES inhibition, 4-nitrophenyl acetate hydrolysis; details: compound 20 μM; mean ± SEM, n = 3; n.a. = not active
Protocol: Final enzyme and substrate (4-nitrophenyl acetate) concentrations were 0.02 unit/mL and 1 mM, respectively. Assays were carried out with a blank containing all constituents except porcine CES to assess non-enzymatic hydrolysis. Measurements were performed with a FLUOStar Optima microplate reader (BMG Labtech, Ortenberg, Germany). Compounds were dissolved in DMSO; the incubation mixture contained 2% (v/v) solvent. The primary evaluation of the inhibitory activity of the compounds was performed by determining the degree of the enzyme inhibition at a compound concentration of 20 µM. For this, a sample of the corresponding enzyme was incubated with the test compound for 5 min; then the enzyme residual activity was determined. Each experiment was performed in triplicate. […] Substrate was then added and residual enzyme activity relative to an inhibitor-free control was measured using a FLUOStar Optima microplate reader.

[10] = Lineweaver-Burk plot, changes in Km and Vmax

Compound	inhibitory activity against CES (porcine liver CES [1])	radical-scavenging activity in the ABTS assay [2]	IC50 (Human erythrocyte AChE [3])	IC50 (equine serum BChE [4])	Type of AChE inhibition (Human erythrocyte AChE [5]; [10])	αKi (noncompetitive component), AChE (Human erythrocyte AChE [5]; mixed type inhibition)	Ki (Human erythrocyte AChE [5]; mixed type inhibition, read-out: Ki (competitive component), AChE)	Type of BChE inhibition (equine serum BChE [6]; [10])	αKi (noncompetitive component), BChE (equine serum BChE [6]; mixed type inhibition)	Ki (equine serum BChE [6]; mixed type inhibition, read-out: Ki (competitive component), BChE)	inhibition at 20 µM (EeAChE PAS)	ABTS•+-scavenging activity, TEAC ([7]; Trolox equivalent antioxidant capacity, mean ± SEM)	IC50 ([7]; concentration for 50% reduction of ABTS radical cation)	FRAP (Fe3+-reducing activity), TE [8]	Inhibitory activity against CES, % inhibition at 20 μM (porcine liver CES [9])
CC(=O)C(=NNc1ccc(C)cc1)C(=O)C(F)(F)F [1c, 1,1,1-trifluoro-3-[2-(4-methylphenyl)hydrazinylidene]pentane-2,4-dione]	moderate inhibitory activity	high radical-scavenging activity													
Cc1ccc(NN=C(C(=O)c2ccccc2)C(=O)C(F)(F)F)cc1 [1d, 4,4,4-trifluoro-2-[2-(4-methylphenyl)hydrazinylidene]-1-phenylbutane-1,3-dione]		high radical-scavenging activity													
CC(=O)C(/N=N/c1ccc(C)cc1)=C(\C)NCCCCCCNc1c2c(nc3ccccc13)CCCC2 [6b]			342 ± 15 nM	138 ± 2 nM	mixed type of inhibition	0.473 ± 0.041 µM	254 ± 18 nM	mixed type of inhibition	0.224 ± 0.022 µM	95 ± 8 nM	19 ± 1.3%	1.00 ± 0.02	18600 ± 1400 nM	0.48 ± 0.04	29.0 ± 0.1%
